Source: patent US20230167070A1, “MODULATORS OF TREX1” (Constellation Pharmaceuticals, Inc., priority 2020, published 2023)

What was measured:
full length human TREX1 = biological target: T1, full length human TREX1 (Homo sapiens, UniProt Q9NSU2); test: TREX1 Biochemical Assay (fluorescence, dsDNA substrate degradation); conditions: 150 pM TREX1, 60 nM dsDNA substrate, 25 minutes at room temperature
T1 construct: N-terminally His-Tev tagged full length human TREX1; made in house; host or cells: E. coli
T1 sequence (Q9NSU2 1-314): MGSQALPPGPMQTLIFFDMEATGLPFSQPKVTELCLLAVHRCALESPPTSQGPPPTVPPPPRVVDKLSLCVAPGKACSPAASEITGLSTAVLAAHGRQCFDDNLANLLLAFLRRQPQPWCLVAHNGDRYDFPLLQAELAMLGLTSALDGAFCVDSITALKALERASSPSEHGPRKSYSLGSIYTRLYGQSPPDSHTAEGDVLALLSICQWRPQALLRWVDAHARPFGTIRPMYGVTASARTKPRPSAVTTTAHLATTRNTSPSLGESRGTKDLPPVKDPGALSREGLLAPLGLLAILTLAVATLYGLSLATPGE
Method: Degradation of the dsDNA liberates free fluorophore to produce a fluorescent signal. Specifically, 7.5 μL of N-terminally His-Tev tagged full length human TREX1 (expressed in E. coli and purified in house) in reaction buffer (50 mM Tris (pH 7.4), 150 mM NaCl, 2 mM DTT, 0.1 mg/mL BSA, 0.01% (v/v) Tween-20 and 100 mM MgCl2) was added to a 384-well Black ProxiPlate Plus (Perkin Elmer) which already contained compound (150 nL) at varying concentrations as a 10 point dose-response in DMSO. To this was added 7.5 μL of dsDNA substrate (Strand A: 5′ TEX615/GCT AGG CAG 3′; Strand B: 5′ CTG CCT AGC/IAbRQSp (Integrated DNA Technologies)) in reaction buffer. Final concentrations were 150 pM TREX1, 60 nM dsDNA substrate in reaction buffer with 1.0% DMSO (v/v). After 25 minutes at room temperature, reactions were quenched by the addition of 5 μL of stop buffer (same as reaction buffer plus 200 mM EDTA). Final concentrations in the quenched reaction were 112.5 pM TREX1, 45 nM DNA and 50 mM EDTA in a volume of 20 μL. After a 5-minute incubation at room temperature, plates were read in a laser sourced Envision (Perkin-Elmer), measuring fluorescence at 615 nm following excitation w/570 nm light. IC50 values were calculated by comparing the measured fluorescence at 615 nm ratio relative to control wells pre-quenched w/stop buffer (100% inhibition) and no inhibitor (0% inhibition) controls as using non-linear least square four parameter fits and either Genedata or GraphPad Prism (GraphPad Software, Inc.).

[1] = biological target: T2, human TREX2 (residues M44-A279) (Homo sapiens, UniProt Q9BQ50); test: TREX2 Biochemical Assay (fluorescence, dsDNA substrate degradation); conditions: 2.5 nM TREX2, 60 nM dsDNA substrate, 25 minutes at room temperature
T2 construct: human TREX2 (residues M44-A279, expressed in E. coli); made in house; host or cells: E. coli
T2 sequence (Q9BQ50 44-279 isoform Q9BQ50-1): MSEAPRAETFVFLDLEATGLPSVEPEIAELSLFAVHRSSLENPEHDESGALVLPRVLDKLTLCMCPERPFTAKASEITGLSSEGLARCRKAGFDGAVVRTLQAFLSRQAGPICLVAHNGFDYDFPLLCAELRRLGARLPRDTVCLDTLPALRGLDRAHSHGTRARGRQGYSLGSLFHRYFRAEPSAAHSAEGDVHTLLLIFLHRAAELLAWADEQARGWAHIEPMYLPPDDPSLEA
Method: Degradation of the dsDNA liberates free fluorophore to produce a fluorescent signal. Specifically, 7.5 μL of N-terminally His-Tev tagged human TREX2 (residues M44-A279, expressed in E. coli and purified in house) in reaction buffer (50 mM Tris (pH 7.4), 150 mM NaCl, 2 mM DTT, 0.1 mg/mL BSA, 0.01% (v/v) Tween-20 and 100 mM MgCl2) was added to a 384-well Black ProxiPlate Plus (Perkin Elmer) which already contained compound (150 nL) at varying concentrations as a 10 point dose-response in DMSO. To this was added 7.5 μL of dsDNA substrate (Strand A: 5′ TEX615/GCT AGG CAG 3′; Strand B: 5′ CTG CCT AGC/IAbRQSp (IDT)) in reaction buffer. Final concentrations were 2.5 nM TREX2, 60 nM dsDNA substrate in reaction buffer with 1.0% DMSO (v/v). After 25 minutes at room temperature, reactions were quenched by the addition of 5 μL of stop buffer (same as reaction buffer plus 200 mM EDTA). Final concentrations in the quenched reaction mixture were […] TREX2, 45 nM DNA and 50 mM EDTA in a volume of 20 μL. After a 5-minute incubation at room temperature, plates were read in a laser sourced Envision (Perkin-Elmer), measuring fluorescence at 615 nm following excitation w/570 nm light. IC50 values were calculated by comparing the measured fluorescence at 615 nm ratio relative to control wells pre-quenched w/stop buffer (100% inhibition) and no inhibitor (0% inhibition) controls as using non-linear least square four parameter fits and either Genedata or GraphPad Prism (GraphPad Software, Inc.).

| IC50 (full length human TREX1) [µM] | IC50 [1] [µM] | SMILES |
| --- | --- | --- |
| 0.1 to 1 | < 1 | CN(c1nc(C(=O)Nc2ccc(F)cc2)c(O)c(=O)n1C)[C@H](c1ccccc1)c1ccccc1Cl (stereo in doubt) [Example 29, 2-(((2-chlorophenyl)(phenyl)methyl)(methyl)amino)-N-(4-fluorophenyl)-5-hydroxy-1-methyl-6-oxo-1,6-dihydropyrimidine-4-carboxamide] |
| 1 to 10 | 10 to 100 | CN(c1nc(C(=O)NCC(F)(F)F)c(O)c(=O)n1C)C(c1ccccc1)c1ccccc1 [Example 1, 2-(benzhydryl(methyl)amino)-5-hydroxy-1-methyl-6-oxo-N-(2,2,2-trifluoroethyl)-1,6-dihydropyrimidine-4-carboxamide] |
| 1 to 10 | 10 to 100 | CN(c1nc(C(=O)NC2CC(F)(F)C2)c(O)c(=O)n1C)C(c1ccccc1)c1ccccc1 [Example 2, 2-(benzhydryl(methyl)amino)-N-(3,3-difluorocyclobutyl)-5-hydroxy-1-methyl-6-oxo-1,6-dihydropyrimidine-4-carboxamide] |
| > 10 | 10 to 100 | CN(c1nc(C(=O)N[C@H]2CCOC2)c(O)c(=O)n1C)C(c1ccccc1)c1ccccc1 [Example 3, (S)-2-(benzhydryl(methyl)amino)-5-hydroxy-1-methyl-6-oxo-N-(tetrahydrofuran-3-yl)-1,6-dihydropyrimidine-4-carboxamide] |
| > 10 | 10 to 100 | CN(c1nc(C(=O)N[C@@H]2CCOC2)c(O)c(=O)n1C)C(c1ccccc1)c1ccccc1 [Example 4, (R)-2-(benzhydryl(methyl)amino)-5-hydroxy-1-methyl-6-oxo-N-(tetrahydrofuran-3-yl)-1,6-dihydropyrimidine-4-carboxamide] |
| 1 to 10 | 10 to 100 | C=C(C)CNC(=O)c1nc(N(C)C(c2ccccc2)c2ccccc2)n(C)c(=O)c1O [Example 5, 2-(benzhydryl(methyl)amino)-5-hydroxy-1-methyl-N-(2-methylallyl)-6-oxo-1,6-dihydropyrimidine-4-carboxamide] |
| 1 to 10 | 10 to 100 | CN(c1nc(C(=O)NC2CC=CC2)c(O)c(=O)n1C)C(c1ccccc1)c1ccccc1 [Example 6, 2-(benzhydryl(methyl)amino)-N-(cyclopent-3-en-1-yl)-5-hydroxy-1-methyl-6-oxo-1,6-dihydropyrimidine-4-carboxamide] |
| 1 to 10 | 10 to 100 | CN(c1nc(C(=O)NC2CCC2)c(O)c(=O)n1C)C(c1ccccc1)c1ccccc1 [Example 7, 2-(benzhydryl(methyl)amino)-N-cyclobutyl-5-hydroxy-1-methyl-6-oxo-1,6-dihydropyrimidine-4-carboxamide] |
| 1 to 10 | 1 to 10 | C=CCNC(=O)c1nc(N(C)C(c2ccccc2)c2ccccc2)n(C)c(=O)c1O [Example 8, N-allyl-2-(benzhydryl(methyl)amino)-5-hydroxy-1-methyl-6-oxo-1,6-dihydropyrimidine-4-carboxamide] |
| > 10 | 10 to 100 | CN(c1nc(C(=O)NC2COC2)c(O)c(=O)n1C)C(c1ccccc1)c1ccccc1 [Example 9, 2-(benzhydryl(methyl)amino)-5-hydroxy-1-methyl-N-(oxetan-3-yl)-6-oxo-1,6-dihydropyrimidine-4-carboxamide] |
| 1 to 10 | 10 to 100 | CCNC(=O)c1nc(N(C)C(c2ccccc2)c2ccccc2)n(C)c(=O)c1O [Example 10, 2-(benzhydryl(methyl)amino)-N-ethyl-5-hydroxy-1-methyl-6-oxo-1,6-dihydropyrimidine-4-carboxamide] |
| > 10 | 10 to 100 | COCCNC(=O)c1nc(N(C)C(c2ccccc2)c2ccccc2)n(C)c(=O)c1O [Example 11, 2-(benzhydryl(methyl)amino)-5-hydroxy-N-(2-methoxyethyl)-1-methyl-6-oxo-1,6-dihydropyrimidine-4-carboxamide] |
| > 10 | 10 to 100 | CNC(=O)c1nc(N(C)C(c2ccccc2)c2ccccc2)n(C)c(=O)c1O [Example 12, 2-(benzhydryl(methyl)amino)-5-hydroxy-N,1-dimethyl-6-oxo-1,6-dihydropyrimidine-4-carboxamide] |
| 0.1 to 1 | 10 to 100 | CN(c1nc(C(=O)NCCC(F)(F)F)c(O)c(=O)n1C)C(c1ccccc1)c1ccccc1 [Example 13, 2-(benzhydryl(methyl)amino)-5-hydroxy-1-methyl-6-oxo-N-(3,3,3-trifluoropropyl)-1,6-dihydropyrimidine-4-carboxamide] |
| 0.1 to 1 | 1 to 10 | CN(c1nc(C(=O)NCC2CC2)c(O)c(=O)n1C)C(c1ccccc1)c1ccccc1 [Example 14, 2-(benzhydryl(methyl)amino)-N-(cyclopropylmethyl)-5-hydroxy-1-methyl-6-oxo-1,6-dihydropyrimidine-4-carboxamide] |
| < 0.1 | < 1 | CN(c1nc(C(=O)Nc2ccccc2)c(O)c(=O)n1C)C(c1ccccc1)c1ccccc1 [Example 15, 2-(benzhydryl(methyl)amino)-5-hydroxy-1-methyl-6-oxo-N-phenyl-1,6-dihydropyrimidine-4-carboxamide] |
| < 0.1 | < 1 | CN(c1nc(C(=O)Nc2cccc(F)c2)c(O)c(=O)n1C)C(c1ccccc1)c1ccccc1 [Example 16, 2-(benzhydryl(methyl)amino)-N-(3-fluorophenyl)-5-hydroxy-1-methyl-6-oxo-1,6-dihydropyrimidine-4-carboxamide] |
| < 0.1 | < 1 | CN(c1nc(C(=O)Nc2ccccc2F)c(O)c(=O)n1C)C(c1ccccc1)c1ccccc1 [Example 17, 2-(benzhydryl(methyl)amino)-N-(2-fluorophenyl)-5-hydroxy-1-methyl-6-oxo-1,6-dihydropyrimidine-4-carboxamide] |
| 0.1 to 1 | < 1 | CN(c1nc(C(=O)Nc2ccc(F)cc2)c(O)c(=O)n1C)C(c1ccccc1)c1ccccc1 [Example 18, 2-(benzhydryl(methyl)amino)-N-(4-fluorophenyl)-5-hydroxy-1-methyl-6-oxo-1,6-dihydropyrimidine-4-carboxamide] |
| 1 to 10 | 10 to 100 | CN(c1nc(C(=O)Nc2c(F)cccc2F)c(O)c(=O)n1C)C(c1ccccc1)c1ccccc1 [Example 19, 2-(benzhydryl(methyl)amino)-N-(2,6-difluorophenyl)-5-hydroxy-1-methyl-6-oxo-1,6-dihydropyrimidine-4-carboxamide] |
| 0.1 to 1 | < 1 | CN(c1nc(C(=O)Nc2ccc(F)c(F)c2)c(O)c(=O)n1C)C(c1ccccc1)c1ccccc1 [Example 20, 2-(benzhydryl(methyl)amino)-N-(3,4-difluorophenyl)-5-hydroxy-1-methyl-6-oxo-1,6-dihydropyrimidine-4-carboxamide] |
